From patent publication US20030229140A1, “Herbal molecule as potential anti-leukemic drug” (priority 2002, published 2003)
Where two headings read alike, the source gives them in different places.

Key:
Normal PBMC = assay: Growth inhibition of normal individuals' PBMC by CA/PCQ; assay type: cell-based, human; conditions: Homo sapiens; for inhibition at 50 µg/mL: 50.0 μg/ml; for inhibition at 100 µg/mL: 100.0 μg/ml
Description: Preparation of peripheral blood mononuclear cells (PBMC) from normal individuals. Whole blood was collected and mononuclear cells were separated by Ficoll/Hypaque density gradient centrifugation.

AML patient's PBMC = assay: Incubation of AML patient's PBMC with CA, viable cell count; assay type: cell-based, human
Protocol: Whole blood (10 ml each) was drawn from previously diagnosed myeloid leukemic patients, one patient was diagnosed as AML and the other one was diagnosed as CML. Mononuclear cells were separated by Ficoll/hypaque density gradient centrifugation. PBMC (1×10^5-2×10^6/ml) of myeloid leukemia patients were incubated with varied concentrations of CA for 48 hours at 37° C. in 5% CO2. Cells were then washed and counted for viability.

[1] = system: CML patient's leukemic cells; assay: Analysis of cell cycle progression and apoptosis by flow cytometry; assay type: cell-based, human
Protocol: Analysis of cell cycle progression and apoptosis by Flow cytometry PBMC of a CML patient was cultured in RPMI-1640 medium supplemented with 10% […] fetal bovine serum in the presence or absence of CA (100.0 μg/ml) for 48 hr. at 37° C. in 5% CO2. Cells were fixed with 40% ethanol treated with 500 μg/ml Rnase A, and then with 69 μM propidium iodide for analysis of DNA content by Flow Cytometry as described (Mitra et al., Molecular Medicine, 6:527-541, 2000).

[2] = system: Promonocytic cell line (U937); assay: Incubation of CD33+ promonocytic cell line U937 with CA/PCQ, viable cell count; assay type: cell-based; conditions: for inhibition at 25 µg/mL: U937, 25.0 μg/ml; for inhibition at 50 µg/mL: U937, 50.0 μg/ml; for inhibition at 100 µg/mL: U937, 100.0 μg/ml
Protocol: Culture of Promonocytic cell line U937. […] This cell line is CD33^+. Incubation of CD33^+ cell line U937 with CA. […] Cells were then washed and counted for viability.

[3] = 24 h, Normal PBMC, 1 day, 1 × 10^5 cells per ml per well, read-out: Percentage inhibition of Cell Growth
[4] = 48 h, Normal PBMC, 2 days, 1 × 10^5 cells per ml per well, read-out: Percentage inhibition of Cell Growth
[5] = 72 h, Normal PBMC, 3 days, 1 × 10^5 cells per ml per well, read-out: Percentage inhibition of Cell Growth
[6] = CML patient's leukemic cells, CA 100.0 μg/ml, 2 days
[7] = Homo sapiens, U-937, 24 h, 1 day, 1 × 10^5 cells per ml per well, read-out: Percentage inhibition of Cell Growth
[8] = Homo sapiens, U-937, 48 h, 2 days, 1 × 10^5 cells per ml per well, read-out: Percentage inhibition of Cell Growth
[9] = Homo sapiens, U-937, 72 h, 3 days, 1 × 10^5 cells per ml per well, read-out: Percentage inhibition of Cell Growth
[10] = Homo sapiens, U-937, 72 h, 3 days, 2×10^5 cells per ml per well, read-out: % Inhibition of cell growth (After 3 days of incubation)

O=C(/C=C/c1ccc(O)c(O)c1)O[C@@H]1C[C@](O)(C(=O)O)C[C@@H](O)[C@H]1O (single isomer, unassigned) [CA, chlorogenic acid or 3-Caffeoyl quinic acid]
inhibition at 50 µg/mL (Normal PBMC; [3]): 6.66% | inhibition at 100 µg/mL (Normal PBMC; [3]): 6.66% | inhibition at 50 µg/mL (Normal PBMC; [4]): 10.3% | inhibition at 100 µg/mL (Normal PBMC; [4]): 17.2% | inhibition at 50 µg/mL (Normal PBMC; [5]): 15.2% | inhibition at 100 µg/mL (Normal PBMC; [5]): 19.5% | inhibition at 25 µg/mL (Normal PBMC; 72 h, Normal individual's PBMC, 25.0 μg/ml, 3 days, 2×10^5 cells per ml per well, read-out: % Inhibition of cell growth (After 3 days of incubation)): 1.03% | inhibition at 50 µg/mL (Normal PBMC; 72 h, Normal individual's PBMC, 3 days, 2×10^5 cells per ml per well, read-out: % Inhibition of cell growth (After 3 days of incubation)): 1.03% | inhibition at 20 µg/mL (AML patient's PBMC; Homo sapiens, AML patient's PBMC, 20 μg/ml, 48 hr, 1 × 10^5 cells/ml/well, read-out: Percent inhibition of cell growth after 48 hr of incubation): 9.5% | inhibition at 50 µg/mL (AML patient's PBMC; Homo sapiens, AML patient's PBMC, 50 μg/ml, 48 hr, 1 × 10^5 cells/ml/well, read-out: Percent inhibition of cell growth after 48 hr of incubation): 16.6% | inhibition at 100 µg/mL (AML patient's PBMC; Homo sapiens, AML patient's PBMC, 100 μg/ml, 48 hr, 1 × 10^5 cells/ml/well, read-out: Percent inhibition of cell growth after 48 hr of incubation): 73.8% | inhibition at 500 µg/mL (AML patient's PBMC; Homo sapiens, AML patient's PBMC, 500 μg/ml, 48 hr, 1 × 10^5 cells/ml/well, read-out: Percent inhibition of cell growth after 48 hr of incubation): 85.7% | destruction of cells (in words) (AML patient's PBMC; PBMC of myeloid leukemia patients (AML)): destroyed | apoptosis by cell-cycle analysis (in words) ([1]; 100.0 μg/ml, two days of culture): caused apoptosis | percentage of cells in (>2n DNA) [1, 6]: 56.35% | percentage of cells in G0/G1 (2n DNA) [1, 6]: 33.13% | percentage of cells in Sub G0/G1 (apoptotic 2n DNA) [1, 6]: 10.64% | inhibition at 10 µg/mL ([2]; Homo sapiens, U-937, 24 h, U937, 10.0 μg/ml, 1 day, 1 × 10^5 cells per ml per well, read-out: Percentage inhibition of Cell Growth): 8.33% | inhibition at 25 µg/mL [2, 7]: 16.7% | inhibition at 50 µg/mL [2, 7]: 25% | inhibition at 100 µg/mL [2, 7]: 45.8% | inhibition at 10 µg/mL ([2]; Homo sapiens, U-937, 48 h, U937, 10.0 μg/ml, 2 days, 1 × 10^5 cells per ml per well, read-out: Percentage inhibition of Cell Growth): 44% | inhibition at 25 µg/mL [2, 8]: 52% | inhibition at 50 µg/mL [2, 8]: 64% | inhibition at 100 µg/mL [2, 8]: 96% | inhibition at 10 µg/mL ([2]; Homo sapiens, U-937, 72 h, U937, 10.0 μg/ml, 3 days, 1 × 10^5 cells per ml per well, read-out: Percentage inhibition of Cell Growth): 57.1% | inhibition at 25 µg/mL [2, 9]: 71.4% | inhibition at 25 µg/mL [2, 10]: 16.7% | inhibition at 50 µg/mL [2, 9]: 89.3% | inhibition at 50 µg/mL [2, 10]: 25% | inhibition at 100 µg/mL [2, 9]: 100% | inhibition at 10 µg/mL ([2]; Homo sapiens, U-937, U937, 10 μg/ml, 48 hr, 1 × 10^5 cells/ml/well, read-out: Percent inhibition of cell growth after 48 hr of incubation): 25% | inhibition at 15 µg/mL ([2]; Homo sapiens, U-937, U937, 15 μg/ml, 48 hr, 1 × 10^5 cells/ml/well, read-out: Percent inhibition of cell growth after 48 hr of incubation): 43.7% | inhibition at 20 µg/mL ([2]; Homo sapiens, U-937, U937, 20 μg/ml, 48 hr, 1 × 10^5 cells/ml/well, read-out: Percent inhibition of cell growth after 48 hr of incubation): 90.6% | destruction of cells (in words) ([2]; U937): destroyed
